Assay results reported in article PMC10184535, “An HR2-Mimicking Sulfonyl-γ-AApeptide Is a Potent Pan-coronavirus Fusion Inhibitor with Strong Blood–Brain Barrier Permeability, Long Half-Life, and Promising Oral Bioavailability” (ACS Central Science, 2023).
Like-named read-outs stand apart in the source and are kept apart here.

Assays:
SARS-CoV-2 PsV [1] = conditions: 48 h
HR1 peptide (911–987) = biological target: T1, HR1 peptide (911–987) (Severe acute respiratory syndrome coronavirus 2, UniProt P0DTC2); assay: Fluorescence polarization binding to HR1 peptide; set-up: species or system SARS-CoV-2
T1 construct: purchased NovoPep Limited

pseudotyped HCoV-NL63 = conditions: 48 h
SARS-CoV-2 PsV [2] = conditions: previously reported EK1 peptide; read-out: IC50, SARS-CoV-2 PsV infection, previously reported; cited from earlier work
pseudotyped SARS-CoV = conditions: 48 h
[3] = tested on: pseudotyped bat SARSr-CoV WIV1; conditions: 48 h
pseudotyped MERS-CoV = conditions: 48 h
PAMPA-GIT = conditions: at three different pH values

SMILES | IC50 (SARS-CoV-2 PsV [1]) [µM] | Kd (HR1 peptide (911–987)) [µM] | also measured
CC(=O)N[C@H](CC(C)C)CN(CC(=O)N[C@H](CCCCN)CN(CC(=O)N[C@H](CC(C)C)CN(CC(=O)N[C@H](CCC(=O)O)CN(CC(=O)N[C@H](CC(C)C)CN(CC(=O)N[C@H](CCC(=O)O)CN(CC(=O)N[C@H](C)CN(CC(=O)N[C@H](CCCCN)CN(CC(=O)N[C@H](C)CN(CC(=O)N[C@H](CCC(=O)O)CN(CC(=O)N[C@H](CC(C)C)CN(CC(=O)NCCCCCC(=O)NCCCCCC(=O)N[C@@H](CSCC(=O)OCCOCCOCCOCCOCCOCCOCCOCCOCCOCCOCCOCCO[C@H]1CC[C@@]2(C)C(=CC[C@H]3[C@@H]4CC[C@H]([C@H](C)CCCC(C)C)[C@@]4(C)CC[C@@H]32)C1)C(N)=O)S(=O)(=O)CC(C)C)S(C)(=O)=O)S(=O)(=O)CCN)S(C)(=O)=O)S(=O)(=O)CCN)S(=O)(=O)CC(C)C)S(=O)(=O)CCN)S(=O)(=O)CCN)S(C)(=O)=O)S(=O)(=O)CCN)S(=O)(=O)CC(C)C [XY4-C3] | 0.92 |  | 
CC(=O)N[C@H](CC(C)C)CN(CC(=O)N[C@H](CCCCN)CN(CC(=O)N[C@H](CC(C)C)CN(CC(=O)N[C@H](CCC(=O)O)CN(CC(=O)N[C@H](CC(C)C)CN(CC(=O)N[C@H](CCC(=O)O)CN(CC(=O)N[C@H](C)CN(CC(=O)N[C@H](CCCCN)CN(CC(=O)N[C@H](C)CN(CC(=O)N[C@H](CCC(=O)O)CN(CC(=O)N[C@H](CC(C)C)CN(CC(=O)NCCCCCC(=O)NCCCCCC(=O)N[C@@H](CSCC(=O)OCCOCCOCCOCCO[C@H]1CC[C@@]2(C)C(=CC[C@H]3[C@@H]4CC[C@H]([C@H](C)CCCC(C)C)[C@@]4(C)CC[C@@H]32)C1)C(N)=O)S(=O)(=O)CC(C)C)S(C)(=O)=O)S(=O)(=O)CCN)S(C)(=O)=O)S(=O)(=O)CCN)S(=O)(=O)CC(C)C)S(=O)(=O)CCN)S(=O)(=O)CCN)S(C)(=O)=O)S(=O)(=O)CCN)S(=O)(=O)CC(C)C [XY4-C1] | 29.8 |  | 
CC(=O)N[C@H](CC(C)C)CN(CC(=O)N[C@H](CCCCN)CN(CC(=O)N[C@H](CC(C)C)CN(CC(=O)N[C@H](CCC(=O)O)CN(CC(=O)N[C@H](CC(C)C)CN(CC(=O)N[C@H](CCC(=O)O)CN(CC(=O)N[C@H](C)CN(CC(=O)N[C@H](CCCCN)CN(CC(=O)N[C@H](C)CN(CC(=O)N[C@H](CCC(=O)O)CN(CC(=O)N[C@H](CC(C)C)CN(CC(N)=O)S(=O)(=O)CC(C)C)S(=O)(=O)CC(C)C)S(=O)(=O)CCN)S(C)(=O)=O)S(=O)(=O)CCN)S(=O)(=O)CC(C)C)S(=O)(=O)CCN)S(=O)(=O)CCN)S(C)(=O)=O)S(=O)(=O)CCN)S(=O)(=O)CCN [XY2] |  | 0.329 | 
CC(=O)N[C@H](CC(C)C)CN(CC(=O)N[C@H](CCCCN)CN(CC(=O)N[C@H](CC(C)C)CN(CC(=O)N[C@H](CCC(=O)O)CN(CC(=O)N[C@H](CC(C)C)CN(CC(=O)N[C@H](CCC(=O)O)CN(CC(=O)N[C@H](C)CN(CC(=O)N[C@H](CCCCN)CN(CC(=O)N[C@H](C)CN(CC(=O)N[C@H](CCC(=O)O)CN(CC(=O)N[C@H](CC(C)C)CN(CC(N)=O)S(=O)(=O)CC(C)C)S(C)(=O)=O)S(=O)(=O)CCN)S(=O)(=O)CC(C)C)S(=O)(=O)CCN)S(=O)(=O)CC(C)C)S(=O)(=O)CCN)S(=O)(=O)CCN)S(C)(=O)=O)S(=O)(=O)CCN)S(=O)(=O)CCN [XY3] |  | 0.426 | 
CC[C@H](C)[C@H](NC(=O)[C@H](C)NC(=O)[C@H](CCC(=O)O)NC(=O)[C@H](CCC(=O)O)NC(=O)[C@H](CC(C)C)NC(=O)[C@H](CCCCN)NC(=O)[C@H](CCCCN)NC(=O)[C@H](CCSC)NC(=O)[C@H](CCC(=O)O)NC(=O)[C@H](Cc1ccc(O)cc1)NC(=O)[C@H](CCC(=O)O)NC(=O)[C@H](CC(C)C)NC(=O)[C@H](CC(=O)O)NC(=O)[C@H](CC(C)C)NC(=O)[C@H](Cc1ccccc1)NC(=O)[C@@H](NC(=O)[C@@H](NC(=O)[C@H](CC(N)=O)NC(=O)[C@@H](NC(=O)[C@H](CCC(N)=O)NC(=O)[C@H](CC(=O)O)NC(=O)[C@H](CC(C)C)NC(=O)[C@@H](N)CO)[C@@H](C)CC)C(C)C)[C@@H](C)O)C(=O)N[C@@H](CCCCN)C(=O)N[C@@H](CCCCN)C(=O)N[C@@H](CC(C)C)C(=O)N[C@@H](CCC(=O)O)C(=O)N[C@@H](CCC(=O)O)C(=O)N[C@@H](CO)C(=O)N[C@@H](Cc1ccc(O)cc1)C(=O)N[C@H](C(=O)N[C@@H](CC(=O)O)C(=O)N[C@@H](CC(C)C)C(=O)N[C@@H](CCCCN)C(=O)N[C@@H](CCC(=O)O)C(=O)N[C@@H](CC(C)C)C(=O)O)[C@@H](C)CC [EK1] |  |  | IC50 (pseudotyped HCoV-NL63): 4.17 µM; IC50 (SARS-CoV-2 PsV [2]): 2.38 µM; IC50 (pseudotyped SARS-CoV): 1.21 µM; IC50 [3]: 19 µM; IC50 (pseudotyped MERS-CoV): 0.21 µM
CC(=O)N[C@H](CC(C)C)CN(CC(=O)N[C@H](CCCCN)CN(CC(=O)N[C@H](CC(C)C)CN(CC(=O)N[C@H](CCC(=O)O)CN(CC(=O)N[C@H](CC(C)C)CN(CC(=O)N[C@H](CCC(=O)O)CN(CC(=O)N[C@H](C)CN(CC(=O)N[C@H](CCCCN)CN(CC(=O)N[C@H](C)CN(CC(=O)N[C@H](CCC(=O)O)CN(CC(=O)N[C@H](CC(C)C)CN(CC(=O)NCCCCCC(=O)NCCCCCC(=O)N[C@@H](CSCC(=O)OCCOCCOCCOCCOCCOCCOCCOCCO[C@H]1CC[C@@]2(C)C(=CC[C@H]3[C@@H]4CC[C@H]([C@H](C)CCCC(C)C)[C@@]4(C)CC[C@@H]32)C1)C(N)=O)S(=O)(=O)CC(C)C)S(C)(=O)=O)S(=O)(=O)CCN)S(C)(=O)=O)S(=O)(=O)CCN)S(=O)(=O)CC(C)C)S(=O)(=O)CCN)S(=O)(=O)CCN)S(C)(=O)=O)S(=O)(=O)CCN)S(=O)(=O)CC(C)C [XY4-C2] | 2.85 |  | 
CC(=O)N[C@H](CC(C)C)CN(CC(=O)N[C@H](CCCCN)CN(CC(=O)N[C@H](CC(C)C)CN(CC(=O)N[C@H](CCC(=O)O)CN(CC(=O)N[C@H](CC(C)C)CN(CC(=O)N[C@H](CCC(=O)O)CN(CC(=O)N[C@H](C)CN(CC(=O)N[C@H](CCCCN)CN(CC(=O)N[C@H](C)CN(CC(=O)N[C@H](CCC(=O)O)CN(CC(=O)N[C@H](CC(C)C)CN(CC(N)=O)S(=O)(=O)CC(C)C)S(C)(=O)=O)S(=O)(=O)CCN)S(C)(=O)=O)S(=O)(=O)CCN)S(=O)(=O)CC(C)C)S(=O)(=O)CCN)S(=O)(=O)CCN)S(C)(=O)=O)S(=O)(=O)CCN)S(=O)(=O)CCN [XY1] |  | 0.287 | 
CC(=O)N[C@H](CC(C)C)CN(CC(=O)N[C@H](CCCCN)CN(CC(=O)N[C@H](CC(C)C)CN(CC(=O)N[C@H](CCC(=O)O)CN(CC(=O)N[C@H](CC(C)C)CN(CC(=O)N[C@H](CCC(=O)O)CN(CC(=O)N[C@H](C)CN(CC(=O)N[C@H](CCCCN)CN(CC(=O)N[C@H](C)CN(CC(=O)N[C@H](CCC(=O)O)CN(CC(=O)N[C@H](CC(C)C)CN(CC(=O)N[C@H](CO)CN(CC(=O)N[C@H](CO)CN(CC(=O)N[C@@H](CSCC(=O)OCCOCCOCCOCCOCCOCCOCCOCCO[C@H]1CC[C@@]2(C)C(=CC[C@H]3[C@@H]4CC[C@H]([C@H](C)CCCC(C)C)[C@@]4(C)CC[C@@H]32)C1)C(N)=O)S(C)(=O)=O)S(C)(=O)=O)S(=O)(=O)CC(C)C)S(C)(=O)=O)S(=O)(=O)CCN)S(C)(=O)=O)S(=O)(=O)CCN)S(=O)(=O)CC(C)C)S(=O)(=O)CCN)S(=O)(=O)CCN)S(C)(=O)=O)S(=O)(=O)CCN)S(=O)(=O)CC(C)C [XY4-C5] | 4.05 |  | 
CC(=O)N[C@H](CC(C)C)CN(CC(=O)N[C@H](CCCCN)CN(CC(=O)N[C@H](CC(C)C)CN(CC(=O)N[C@H](CCC(=O)O)CN(CC(=O)N[C@H](CC(C)C)CN(CC(=O)N[C@H](CCC(=O)O)CN(CC(=O)N[C@H](C)CN(CC(=O)N[C@H](CCCCN)CN(CC(=O)N[C@H](C)CN(CC(=O)N[C@H](CCC(=O)O)CN(CC(=O)N[C@H](CC(C)C)CN(CC(N)=O)S(=O)(=O)CC(C)C)S(C)(=O)=O)S(=O)(=O)CCN)S(C)(=O)=O)S(=O)(=O)CCN)S(=O)(=O)CC(C)C)S(=O)(=O)CCN)S(=O)(=O)CCN)S(C)(=O)=O)S(=O)(=O)CCN)S(=O)(=O)CC(C)C [XY4] |  | 0.132 | 
CC(=O)N[C@H](CC(C)C)CN(CC(=O)N[C@H](CCCCN)CN(CC(=O)N[C@H](CC(C)C)CN(CC(=O)N[C@H](CCC(=O)O)CN(CC(=O)N[C@H](CC(C)C)CN(CC(=O)N[C@H](CCC(=O)O)CN(CC(=O)N[C@H](C)CN(CC(=O)N[C@H](CCCCN)CN(CC(=O)N[C@H](C)CN(CC(=O)N[C@H](CCC(=O)O)CN(CC(=O)N[C@H](CC(C)C)CN(CC(=O)N[C@H](CO)CN(CC(=O)N[C@H](CO)CN(CC(=O)N[C@@H](CSCC(=O)OCCOCCOCCOCCOCCOCCOCCOCCOCCOCCOCCOCCO[C@H]1CC[C@@]2(C)C(=CC[C@H]3[C@@H]4CC[C@H]([C@H](C)CCCC(C)C)[C@@]4(C)CC[C@@H]32)C1)C(N)=O)S(C)(=O)=O)S(C)(=O)=O)S(=O)(=O)CC(C)C)S(C)(=O)=O)S(=O)(=O)CCN)S(C)(=O)=O)S(=O)(=O)CCN)S(=O)(=O)CC(C)C)S(=O)(=O)CCN)S(=O)(=O)CCN)S(C)(=O)=O)S(=O)(=O)CCN)S(=O)(=O)CC(C)C [XY4-C6] | 2.63 |  | 
Cc1cc(=O)n(-c2ccccc2)n1C [antipyrine] |  |  | Papp at 30 min, 200 μM (PAMPA-GIT; 200 μM, negative control): < 6 ×10⁻⁶ cm/s
NC(=O)N1c2ccccc2C=Cc2ccccc21 [carbamazepine] |  |  | Papp at 30 min, 50 μM (PAMPA-GIT; 50 μM, positive control): ~150 ×10⁻⁶ cm/s
